Measured values: patent publication US7612097B2, “Method for producing bactericidal pyridine compound and bactericidal pyridine compound” (Tama Kagaku Kogyo Co., Ltd., priority 2003, dated 2009)
≈ marks a conversion by molar mass, not a printed value.

Legend:
Assay type in all cases: cell-based
[1] = tested on: Aureobasidium pullulans IFO 6353; assay: Antimold MIC against eumycetes, broth dilution; details: Sabouraud medium, 30° C., 7 days
Experimental: (§1) As a control compound, TBZ (2-(4′-thiozolyl)benzimidazole) was used. Each minimum inhibitory concentration (MIC) was determined as will be described hereinafter. Following the general broth dilution method, each test microorganisms which had been precultured with Sabouraud medium was diluted with humectant-added, sterilized water to prepare a spore suspension. Aliquots (1 mL) of diluted solutions of a compound were mixed with 1-mL aliquots of the spore suspension, respectively. After incubating the mixtures at 30° C. for 1 week in an incubator, turbidity was relied upon to determine whether or not any growth had taken place. The turbidity-free lowest concentration was recorded as MIC.

[2] = tested on: Rhizopus nigricans SN 32; assay: Antimold MIC against eumycetes, broth dilution; details: Sabouraud medium, 30° C., 7 days
Experimental: as §1

[3] = tested on: Aspergillus niger TSY 0013; assay: Antimold MIC against eumycetes, broth dilution; details: Sabouraud medium, 30° C., 7 days
Experimental: as §1

[4] = tested on: Aspergillus terreus IFO 6346; assay: Antimold MIC against eumycetes, broth dilution; details: Sabouraud medium, 30° C., 7 days
Experimental: as §1

[5] = tested on: Aspergillus niger IFO 6341; assay: Antimold MIC against eumycetes, broth dilution; details: Sabouraud medium, 30° C., 7 days
Experimental: as §1

[6] = tested on: Gliocladium virides IFO 6355; assay: Antimold MIC against eumycetes, broth dilution; details: Sabouraud medium, 30° C., 7 days
Experimental: as §1

[7] = tested on: Chaetomium globosum IFO 6347; assay: Antimold MIC against eumycetes, broth dilution; details: Sabouraud medium, 30° C., 7 days
Experimental: as §1

[8] = tested on: Cladosporium cladosporioides IFO 6348; assay: Antimold MIC against eumycetes, broth dilution; details: Sabouraud medium, 30° C., 7 days
Experimental: as §1

[9] = tested on: Trichoderma virides IFO 30498; assay: Antimold MIC against eumycetes, broth dilution; details: Sabouraud medium, 30° C., 7 days
Experimental: as §1

[10] = tested on: Penicillium funiculosum IFO 6345; assay: Antimold MIC against eumycetes, broth dilution; details: Sabouraud medium, 30° C., 7 days
Experimental: as §1

[11] = tested on: Bacillus subtilis ATCC 6633; assay: Bactericidal activity MBC, dilution method; details: 30° C., 30 min
Experimental: (§2) Each minimum inhibitory concentration (MIC) was determined as will be described hereinafter. Aliquots of a suspension of stationary-phase cells, the cell concentration of which had been adjusted to 10^6 cells/mL with nutrient broth in accordance with the general broth dilution method, were mixed with serially-diluted solutions of a compound, respectively. […]
(§3) As a control compound, benzalkonium bromide was used. Using five (5) Gram-negative bacteria and four (4) Gram-positive bacteria as test microorganisms, minimum bactericidal concentrations (MBCs) were determined in a similar manner as described above.

[12] = tested on: Staphylococcus aureus IFO 12732; assay: Bactericidal activity MBC, dilution method; details: 30° C., 30 min
Experimental: as §2, §3

[13] = tested on: Escherichia coli K12 W3110; assay: Bactericidal activity MBC, dilution method; details: 30° C., 30 min
Experimental: as §2, §3

[14] = tested on: Bacillus subtilis IFO 3134; assay: Bactericidal activity MBC, dilution method; details: 30° C., 30 min
Experimental: as §2, §3

[15] = tested on: Bacillus cereus IFO 3001; assay: Bactericidal activity MBC, dilution method; details: 30° C., 30 min
Experimental: as §2, §3

[16] = tested on: Pseudomonas aeruginosa ATCC 27583; assay: Bactericidal activity MBC, dilution method; details: 30° C., 30 min
Experimental: as §2, §3

[17] = tested on: Proteus rettgeri NIH 96; assay: Bactericidal activity MBC, dilution method; details: 30° C., 30 min
Experimental: as §2, §3

[18] = tested on: Klebsiella pneumoniae ATCC 13883; assay: Bactericidal activity MBC, dilution method; details: 30° C., 30 min
Experimental: as §2, §3

[19] = tested on: Escherichia coli K12 OUT 8401; assay: Bactericidal activity MBC, dilution method; details: 30° C., 30 min
Experimental: (§4) Each minimum inhibitory concentration (MIC) was determined as will be described hereinafter. Aliquots of a suspension of stationary-phase cells, the cell concentration of which had been adjusted to 10^6 cells/mL with nutrient broth in accordance with the general broth dilution method, were mixed with serially-diluted solutions of a compound, respectively. Subsequent to stationary culture at 37° C. for 24 hours, the MIC value was determined depending upon whether or not any growth had taken place.
as §3

[20] = tested on: Proteus mirabilis IFO 3849; assay: Bacteriostatic activity MIC, broth dilution; details: nutrient broth, 37° C., 24 hours
Experimental: (§5) Using benzalkonium chloride as a control compound, minimum inhibitory concentrations (MICs) were determined.
as §4
(§6) As test microorganisms, ten (10) Gram-negative bacteria and six (6) Gram-positive bacteria were used.

[21] = tested on: Bacillus subtilis ATCC 6633; assay: Bacteriostatic activity MIC, broth dilution; details: nutrient broth, 37° C., 24 hours
Experimental: as §5, §4, §6

[22] = tested on: Klebsiella pneumoniae ATCC 4352; assay: Bacteriostatic activity MIC, broth dilution; details: nutrient broth, 37° C., 24 hours
Experimental: as §5, §4, §6

[23] = tested on: Staphylococcus aureus IFO 12732; assay: Bacteriostatic activity MIC, broth dilution; details: nutrient broth, 37° C., 24 hours
Experimental: as §5, §4, §6

[24] = tested on: Escherichia coli K12 W3110; assay: Bacteriostatic activity MIC, broth dilution; details: nutrient broth, 37° C., 24 hours
Experimental: as §5, §4, §6

[25] = tested on: Pseudomonas aeruginosa ATCC 10145; assay: Bacteriostatic activity MIC, broth dilution; details: nutrient broth, 37° C., 24 hours
Experimental: as §5, §4, §6

[26] = tested on: Proteus vulgaris ATCC 13315; assay: Bacteriostatic activity MIC, broth dilution; details: nutrient broth, 37° C., 24 hours
Experimental: as §5, §4, §6

[27] = tested on: Bacillus subtilis IFO 3134; assay: Bacteriostatic activity MIC, broth dilution; details: nutrient broth, 37° C., 24 hours
Experimental: as §5, §4, §6

[28] = tested on: Bacillus cereus IFO 3001; assay: Bacteriostatic activity MIC, broth dilution; details: nutrient broth, 37° C., 24 hours
Experimental: as §5, §4, §6

[29] = tested on: Pseudomonas aeruginosa ATCC 27583; assay: Bacteriostatic activity MIC, broth dilution; details: nutrient broth, 37° C., 24 hours
Experimental: as §5, §4, §6

[30] = tested on: Staphylococcus aureus JCI (MRSA); assay: Bacteriostatic activity MIC, broth dilution; details: nutrient broth, 37° C., 24 hours
Experimental: as §5, §4, §6

[31] = tested on: Escherichia coli K12 OUT 8401; assay: Bacteriostatic activity MIC, broth dilution; details: nutrient broth, 37° C., 24 hours
Experimental: as §5, §4, §6

[32] = tested on: Proteus rettgeri NIH 96; assay: Bacteriostatic activity MIC, broth dilution; details: nutrient broth, 37° C., 24 hours
Experimental: as §5, §4, §6

[33] = tested on: Micrococcus luteus IFO 12708; assay: Bacteriostatic activity MIC, broth dilution; details: nutrient broth, 37° C., 24 hours
Experimental: as §5, §4, §6

[34] = tested on: Pseudomonas aeruginosa ATCC 3080; assay: Bacteriostatic activity MIC, broth dilution; details: nutrient broth, 37° C., 24 hours
Experimental: as §5, §4, §6

[35] = tested on: Klebsiella pneumoniae ATCC 13883; assay: Bacteriostatic activity MIC, broth dilution; details: nutrient broth, 37° C., 24 hours
Experimental: as §5, §4, §6

c1ccc2[nH]c(-c3cscn3)nc2c1 [TBZ, 2-(4′-thiozolyl)benzimidazole, reference compound]
MIC [1]: 0.8 µM (≈ 0.161 µg/mL) | MIC [2]: 102.4< μM | MIC [3]: 102.4 µM (≈ 20.6 µg/mL) | MIC [4]: 25.6 µM (≈ 5.15 µg/mL) | MIC [5]: 25.6 µM (≈ 5.15 µg/mL) | MIC [6]: 3.2 µM (≈ 0.644 µg/mL) | MIC [7]: 3.2 µM (≈ 0.644 µg/mL) | MIC [8]: 3.2 µM (≈ 0.644 µg/mL) | MIC [9]: 51.2 µM (≈ 10.3 µg/mL) | MIC [10]: 1.6 µM (≈ 0.322 µg/mL)

CCCCCCCC[n+]1cccc(COCCCCOCc2ccc[n+](CCCCCCCC)c2)c1.[Br-].[Br-] [Compound 7-A]
MBC [11]: 0.9 µM | MBC [12]: 0.9 µM | MBC [13]: 1.8 µM | MBC [14]: 0.9 µM | MBC [15]: 0.9 µM | MBC [16]: 3.6 µM | MBC [17]: 3.6 µM | MBC [18]: 3.6 µM | MIC [1]: 3.6 µM | MIC [2]: 6.25 µM | MIC [3]: 3.6 µM | MIC [4]: 3.6 µM | MIC [5]: 3.6 µM | MIC [6]: 3.6 µM | MIC [7]: 3.6 µM | MIC [8]: 3.6 µM | MIC [9]: 6.25 µM | MIC [10]: 3.6 µM | MBC [19]: 1.8 µM | MIC [20]: 6.25 µM | MIC [21]: 0.45 µM | MIC [22]: 1.8 µM | MIC [23]: 0.45 µM | MIC [24]: 0.9 µM | MIC [25]: 6.25 µM | MIC [26]: 3.6 µM | MIC [27]: 0.5 µM | MIC [28]: 0.45 µM | MIC [29]: 6.25 µM | MIC [30]: 0.4 µM | MIC [31]: 0.9 µM | MIC [32]: 3.6 µM | MIC [33]: 0.2 µM | MIC [34]: 6.25 µM | MIC [35]: 1.8 µM

CCCCCCCCCC[n+]1cccc(COCCCCOCc2ccc[n+](CCCCCCCCCC)c2)c1.[Br-].[Br-] [Compound 7-C]
MBC [11]: 0.2 µM | MBC [12]: 0.2 µM | MBC [13]: 0.45 µM | MBC [14]: 0.45 µM | MBC [15]: 0.2 µM | MBC [16]: 0.9 µM | MBC [17]: 0.9 µM | MBC [18]: 0.9 µM | MIC [1]: 1.8 µM | MIC [2]: 1.8 µM | MIC [3]: 1.8 µM | MIC [4]: 0.9 µM | MIC [5]: 1.8 µM | MIC [6]: 1.8 µM | MIC [7]: 0.9 µM | MIC [8]: 0.9 µM | MIC [9]: 0.9 µM | MIC [10]: 1.8 µM | MBC [19]: 0.45 µM | MIC [20]: 1.8 µM | MIC [21]: 0.1 µM | MIC [22]: 0.45 µM | MIC [23]: 0.2 µM | MIC [24]: 0.45 µM | MIC [25]: 1.8 µM | MIC [26]: 0.45 µM | MIC [27]: 0.2 µM | MIC [28]: 0.2 µM | MIC [29]: 1.8 µM | MIC [30]: 0.45 µM | MIC [31]: 0.45 µM | MIC [32]: 0.9 µM | MIC [33]: 0.1 µM | MIC [34]: 0.9 µM | MIC [35]: 1.8 µM

benzalkonium iodide [reference compound]
MBC [11]: 0.8 µM | MBC [12]: 6.4 µM | MBC [13]: 204.8 µM | MBC [14]: 1.6 µM | MBC [15]: 25.6 µM | MBC [16]: 204.8 µM | MBC [17]: 51.2 µM | MBC [18]: 102.4 µM | MBC [19]: 51.2 µM

benzalkonium chloride [reference compound]
MIC [20]: 204.8 µM | MIC [21]: 6.4 µM | MIC [22]: 12.8 µM | MIC [23]: 6.4 µM | MIC [24]: 25.6 µM | MIC [25]: 51.2 µM | MIC [26]: 16.4 µM | MIC [27]: 6.4 µM | MIC [28]: 6.4 µM | MIC [29]: 51.2 µM | MIC [30]: 12.8 µM | MIC [31]: 12.8 µM | MIC [32]: 51.2 µM | MIC [33]: 6.4 µM | MIC [34]: 102.4 µM | MIC [35]: 102.4 µM

CCCCCCCC[n+]1ccc(COCCCCOCc2cc[n+](CCCCCCCC)cc2)cc1.[Br-].[Br-] [Compound 7-B]
MBC [11]: 0.9 µM | MBC [12]: 0.9 µM | MBC [13]: 1.8 µM | MBC [14]: 0.9 µM | MBC [15]: 0.9 µM | MBC [16]: 3.6 µM | MBC [17]: 3.6 µM | MBC [18]: 3.6 µM | MIC [1]: 3.6 µM | MIC [2]: 6.25 µM | MIC [3]: 3.6 µM | MIC [4]: 3.6 µM | MIC [5]: 3.6 µM | MIC [6]: 3.6 µM | MIC [7]: 3.6 µM | MIC [8]: 3.6 µM | MIC [9]: 6.25 µM | MIC [10]: 3.6 µM | MBC [19]: 1.8 µM | MIC [20]: 6.25 µM | MIC [21]: 0.45 µM | MIC [22]: 1.8 µM | MIC [23]: 0.45 µM | MIC [24]: 0.9 µM | MIC [25]: 3.6 µM | MIC [26]: 3.6 µM | MIC [27]: 0.45 µM | MIC [28]: 0.45 µM | MIC [29]: 3.6 µM | MIC [30]: 0.45 µM | MIC [31]: 0.9 µM | MIC [32]: 3.6 µM | MIC [33]: 0.2 µM | MIC [34]: 6.25 µM | MIC [35]: 3.6 µM
